What was measured:
Type in all cases: physicochemical
[1] = Visual assessment of thioglycolipid aggregation and hydrogel formation; set-up: key to Visual assessment of aggregation and gelation: G = gel; F = fibrous aggregation; C = clear solution; O = cloudy solution; details: for Hydrogelation on quenching: quenched at temperatures <20° C.
Protocol: Preparation of Thioglycolipid Solutions and Hydrogel Fabrication. Aqueous solutions of thioglycolipids were prepared by weighing 2-3 mg of thioglycolipids and adding an appropriate volume of water to make solution samples at desired concentrations in vials. The vials were capped, sealed with Parafilm, and heated to 75° C. (or 85° C. for LacSC12) until the thioglycolipids were completely dissolved, which typically required about 1 min. The samples were then allowed to cool to ambient temperature. Above some minimal concentration, the solution forms hydrogels upon cooling (FIG. 1). While hydrogelation happens in under 1 min, the gels were allowed to equilibrate at room temperature for 15 min before any analysis. To make metastable thiocellobiosides gels, the samples were quenched at −4° C. after dissolution at 75° C. Although the metastable hydrogels also formed in under 1 min, the gels were allowed to equilibrate at −4° C. for 15 min before analysis.
Visual Assessment of Thioglycolipid Hydrogel Formation. A wide range of thioglycolipid solutions were evaluated to establish concentration conditions (wt %) under which hydrogelation occurs and to assess the formation of other phases. For LacSC8 and LacSC12 solutions at concentrations <0.5 wt %, the solutions were either clear (C) or contain large aggregates (O) (i.e., cloudy). These solutions formed partial hydrogels surrounded by clear solution between 0.5 but <1 wt %, and were completely gelled at concentrations of 1 wt % and greater. Solutions of LacSC10 at <2 wt % formed partial hydrogels surrounded by clear liquid but were completely gelled at or above 2 wt %. […] CelSC10 and CelSC12 solutions formed settled fibrous aggregates in clear solution after equilibrating at ambient temperature overnight. […] If retained at 5° C. , the CelSC10 and CelSC12 gels were stable for at least 6 months. […] Powder x-ray diffraction confirmed that these fibrous aggregates were crystalline. Overall, the thioglycolipid concentration at which hydrogelation can be observed can be as low as 0.05 wt %, depending on thioglycolipid system, compared to the typical concentration for hydrogelation of at least 1 wt % commonly reported in the literature, although 0.25-2 wt % is the concentration range wherein these thioglycolipid solutions became fully hydrogelled. The existence of metastable hydrogels and the ability to tune the transformation of hydrogels into crystals may allow their potential use as smart materials for different applications.

[2] = Differential scanning calorimetry of hydrogels (gel-sol phase transition); details: for Phase transition temperature: DSC heating 5° C. per min; for Enthalpy (J/g hydrogel) / Enthalpy (kJ/mol thioglycolipids): gel-sol transition
Protocol: Differential Scanning calorimetry. A Mettler Toledo DSC 823e differential scanning calorimeter, equipped with cooling apparatus, was used for measurement of the phase transition temperature and enthalpy of the gels. Hydrogel samples were first prepared using the fabrication method described above. Then, they were heated to 75° C. (or 85° C. for LacSC12) until they were in the solution state and then pipetted into aluminum, 40 μL DSC pans and capped with lids. The amount of hydrogel in each aluminum pan was controlled to about 6-8 mg. The pans were maintained at 85° C. for 1 min to ensure the samples were in the solution state. Then, they were cooled to 5° C. and maintained at this temperature for 20 min to ensure the formation of hydrogels. […], the samples were heated from 5° C. to 85° C. at a heating rate at 5° C. per min.
Thermal Properties by DSC. Differential scanning calorimetry (DSC) was used to determine the phase transition temperature as well as to explore the possible existence of other lyotropic phases. DSC involves monitoring the enthalpy change during a phase transition, which can be used as a measure of hydrogel stability. The results (Table 2) indicated an endothermic transition between 30° C. and 80° C. for all thioglycolipid hydrogels studied, and these transitions matched those observed visually in bulk solutions. Overall, hydrogels with longer carbon chains had higher thermostability (i.e., higher phase transition temperature). In addition, the LacSCx (x=10,12) hydrogels had higher thermostability than the CelSCx (x=10,12) hydrogels, despite similar phase transition enthalpies. […] However, the LacSC12 and CelSC12 hydrogels required twice the enthalpy compared to the other three.

[3] = Stability of hydrogel disks in aqueous media of various pH
Text: Stability of some of the representative hydrogels of the invention in various pH aqueous media was investigated.

[4] = Small amplitude oscillatory shear rheology of hydrogels (strain sweep, frequency sweep, thixotropy); details: LacSC10 2 wt %, LacSC12 1 wt %
Protocol: Rheometry. The viscoelastic mechanical properties of the hydrogels were characterized using small amplitude oscillatory shear rheology on a Discovery Hybrid Rheometer 2 (TA Instruments, USA) with a sandblasted 20 mm cone-and-plate geometry at a 1° angle and a sandblasted stage. Inertia, friction, and rotational mapping calibrations were performed prior to each experiment. A Peltier temperature-controlled stage was maintained at 4° C., 10° C., 25° C., or 37° C. for rheology testing. Hydrogels were heated in a water bath above their transition temperature for 5 min, then transferred to the stage before the geometry was lowered quickly (1-3 sec) to the testing gap height of 50 μm. Excess gel was trimmed from the edges of the assembly. To control evaporation, the assembly was encased in a solvent trap with a water seal, and a mineral oil barrier was placed around the edges of the trap. Hydrogels were allowed to form and relax for 1 hour prior to experimentation. Strain sweeps were performed from 0.01% to 1000% shear strain at a constant 10 rad/s angular frequency. G′ (storage modulus) and G″ (loss modulus) were determined by averaging data within the linear viscoelastic region of the strain sweep. Frequency sweeps were performed from 0.01 rad/s to 100 rad/s at a constant 0.01% shear strain. Thixotropy experiments were conducted by cycling the shear strain between 0.01% and 100%. […]

[5] = thioglycolipid concentration 0.05 wt %, room temperature
[6] = thioglycolipid concentration 0.1 wt %, room temperature
[7] = thioglycolipid concentration 0.25 wt %, room temperature
[8] = thioglycolipid concentration 0.5 wt %, room temperature
[9] = thioglycolipid concentration 0.75 wt %, room temperature
[10] = thioglycolipid concentration 1 wt %, room temperature
[11] = thioglycolipid concentration 2 wt %, room temperature
[12] = thioglycolipid concentration 5 wt %, room temperature
[13] = thioglycolipid concentration 10 wt %, room temperature

Row | Structure (SMILES) | Visual assessment of aggregation and gelation [1, 5] | Visual assessment of aggregation and gelation [1, 6] | Visual assessment of aggregation and gelation [1, 7] | Visual assessment of aggregation and gelation [1, 8] | Visual assessment of aggregation and gelation [1, 9] | Visual assessment of aggregation and gelation [1, 10] | Visual assessment of aggregation and gelation [1, 11] | Visual assessment of aggregation and gelation [1, 12] | Visual assessment of aggregation and gelation [1, 13] | Hydrogelation on quenching [1] | Phase transition temperature ([2]; 1 wt % hydrogel) | Enthalpy (J/g hydrogel) ([2]; 1 wt % hydrogel) | Enthalpy (kJ/mol thioglycolipids) ([2]; 1 wt % hydrogel) | Gel properties at 37° C. [4] | other results
1 | CCCCCCCCS[C@@H]1O[C@H](CO)[C@@H](O[C@@H]2O[C@H](CO)[C@@H](O)[C@H](O)[C@H]2O)[C@H](O)[C@H]1O [CelSC8] | C | C | C | C | C | C | C | C | C | – | – | – | – | – | Visual state of solutions over all concentrations studied ([1]; room temperature, 0.05-10 wt %): remained as clear solutions at all concentrations studied
2 | CCCCCCCCCCS[C@@H]1O[C@H](CO)[C@@H](O[C@@H]2O[C@H](CO)[C@@H](O)[C@H](O)[C@H]2O)[C@H](O)[C@H]1O [CelSC10] | F | F | G or F | G or F | G or F | G or F | G or F | G or F | G or F | completely hydrogelled | 31-37 °C | 0.18 ± 0.01 J/g hydrogel | 9.0 ± 0.6 kJ/mol thioglycolipids | – | –
3 | CCCCCCCCCCCCS[C@@H]1O[C@H](CO)[C@@H](O[C@@H]2O[C@H](CO)[C@@H](O)[C@H](O)[C@H]2O)[C@H](O)[C@H]1O [CelSC12] | F | F | G or F | G or F | G or F | G or F | G or F | G or F | G or F | completely hydrogelled | 42-54 °C | 0.42 ± 0.06 J/g hydrogel | 22.3 ± 3.3 kJ/mol thioglycolipids | – | –
4 | CCCCCCCCS[C@@H]1O[C@H](CO)[C@@H](O[C@@H]2O[C@H](CO)[C@H](O)[C@H](O)[C@H]2O)[C@H](O)[C@H]1O [LacSC8] | C | C | C | G + C | G + C | G | G | G | G | – | 38-46 °C | 0.20 ± 0.03 J/g hydrogel | 9.2 ± 1.4 kJ/mol thioglycolipids | – | –
5 | CCCCCCCCCCS[C@@H]1O[C@H](CO)[C@@H](O[C@@H]2O[C@H](CO)[C@H](O)[C@H](O)[C@H]2O)[C@H](O)[C@H]1O [LacSC10] | G + C | G + C | G + C | G + C | G + C | G + C | G | G | G | – | – | – | – | retained their gel properties | Hydrogel disk size or volume in aqueous media ([3]; pH 2, 7.4 and 10, days 1-21): No observable decrease in disk size or volume; Time hydrogel disks are stable in aqueous media ([3]; pH 2, 7.4 and 10, maximum time investigated): stable in these aqueous media for over two months; Concentration at which solutions were completely gelled ([1]; room temperature): ≥ 2 wt %; Phase transition temperature ([2]; 2 wt % hydrogel): 57-64 °C; Enthalpy (J/g hydrogel) ([2]; 2 wt % hydrogel): 0.35 ± 0.02 J/g hydrogel; Enthalpy (kJ/mol thioglycolipids) ([2]; 2 wt % hydrogel): 8.8 ± 0.5 kJ/mol thioglycolipids
6 | CCCCCCCCCCCCS[C@@H]1O[C@H](CO)[C@@H](O[C@@H]2O[C@H](CO)[C@H](O)[C@H](O)[C@H]2O)[C@H](O)[C@H]1O [LacSC12] | O | O | O | G + C | G + C | G | G | G | G | – | 63-79 °C | 0.39 ± 0.10 J/g hydrogel | 20.7 ± 5.3 kJ/mol thioglycolipids | retained their gel properties | –

— patent publication US20240181136A1, “LOW MOLECULAR WEIGHT HYDROGELS COMPRISING THIOGLYCOLIPIDS” (ARIZONA BOARD OF REGENTS ON BEHALF OF THE UNIVERSITY OF …, priority 2021, published 2024)
